{
  "source": "patent US8361780B2",
  "about": "“Biological system and assay for identifying modulators of tubulin ligases” (University of Georgia Research Foundation, Inc., priority 2005, dated 2013)",
  "key": {"[1]": {"test_system": "zebrafish embryos", "experiment": "Expression pattern of southpaw in zebrafish embryos (in situ hybridization)", "format": "in vivo", "source_text": "(§1) MO Knockdowns in Zebrafish Embryos. TTLL3-ATG MO (5′ […] 3′; SEQ ID NO:129) and TTLL3-SP MO (5′ […] 3; SEQ ID NO:130) were obtained from Open Biosystems (Huntsville, AL). TTLL3-ATG targets the translation initiation site of ttll3 mRNA. TTLL3-SP is predicted to prevent splicing of exon 11 and cause a frame shift in exon 12. This would eliminate the coding sequence downstream of exon 10, which includes a conserved catalytic domain-encoding region. To evaluate the effect of TTLL3-SP on ttll3 mRNA, total RNA was isolated with TRIzol reagent (Invitrogen, Inc., Carlsbad, Calif.) from embryos at 7 hpf: 50 uninjected control embryos, 40 embryos injected with 3 ng TTLL3-SP MO, or 30 embryos injected with 5 ng TTLL3-SP MO. Total RNA ([…]) was used as a template for cDNA synthesis with random hexamers and oligo-dT primers and the iScript TM cDNA synthesis kit (Bio-Rad Laboratories, Hercules, Calif.). cDNA ([…]) was amplified with the following primers spanning exon 11: TTLL3-splice F, 5′-[…]-3′ (exon 10; SEQ ID NO:131); TTLL3-splice R, 5′-[…]-3′ (exon 12; SEQ ID NO:132). As expected, primers flanking exon 11 produced a shorter product in RT-PCR from embryos injected with TTLL3-SP than in controls (FIG. 50D). […] As a negative control, we injected 25 base MOs with a random base mixture at each position (Gene Tools, Inc., Philomath, Oreg.).\n(§2) Microscopy of Zebrafish. For whole-mount, in situ hybridization, embryos were fixed as previously described (Hagos and Dougan, 2007), stored in 100% methanol at −20° C., and stained with spaw, lefty1, lefty2, and cmlc2 probes (Yelon, 2001). Embryos were photographed under differential interference contrast with a Zeiss Axioplan 2 microscope with Slidebook (Intelligent Imaging Innovations, Denver, Colo.). For immunofluorescence, the embryos were manually dechorionated and fixed with 0.5% Triton X-100 and 4% paraformaldehyde in PBT (0.1% Tween-20 in PBS) at 4° C. overnight. After washing with PBT, embryos were dehydrated in methanol/PBT series and incubated overnight in 100% methanol at −20° C. After rehydration, embryos were blocked for 1-2 hr in 2% BSA, 0.5% normal goat serum,l%DMSO, 0.5% Triton X-100 in PBS, and incubated overnight at 4° C. with one of the following antibodies: 6-11 B-1 (1:1000); TAP952 (1:2000); AXO49 (1:2000); and GT335 (1:1000); polyE (1:500). After washing 3×10 min with 0.5% Triton X-100 in PBS, embryos were incubated overnight at 4° C. in anti-mouse-IgG-FITC or anti-rabbit-IgG-Cy3 (1:500; Zymed), washed (3×10 min), mounted in 100 mg/ml of DABCO (Sigma-Aldrich) in PBS, and examined on a Leica TCS SP confocal microscope."}, "[2]": {"test_system": "zebrafish embryos", "experiment": "Expression pattern of lefty2 in zebrafish embryos (in situ hybridization)", "format": "in vivo", "source_text": "as §1, §2"}, "[3]": {"test_system": "zebrafish embryos", "experiment": "Tubulin monoglycylation in cilia of zebrafish embryos (TAP952 immunofluorescence)", "format": "in vivo", "settings": "72 hpf; TTLL3-ATG MO 1 ng, TTLL3-SP MO 3 ng", "source_text": "as §1, §2"}, "[4]": {"test_system": "ttll3 mRNA", "experiment": "RT-PCR assay for TTLL3 mRNA in injected zebrafish embryos", "format": "in vivo", "settings": "embryos at 7 hpf, 3 or 5 ng", "source_text": "as §1"}, "[5]": {"test_system": "zebrafish embryos", "experiment": "Heart position in zebrafish embryos, in situ hybridization", "format": "in vivo", "source_text": "as §1, §2"}, "[6]": {"test_system": "zebrafish embryos", "experiment": "Heart position in zebrafish embryos, scoring live embryos", "format": "in vivo", "source_text": "as §1"}, "[7]": {"test_system": "zebrafish embryos", "experiment": "Morphology of zebrafish morphant embryos", "settings": "in vivo", "source_text": "as §1"}},
  "data": [
    {"substance": "TTLL3-SP-MO: antisense morpholino 5′ GATGTACAGAGCTGAGATTGAAAAG 3; blocks splicing at the intron 10/exon 11 junction of ttll3 mRNA (all phosphorodiamidate morpholino (PMO))", "values": [
      {"measurement": "southpaw expression: Bilatera or midline, number of embryos", "setting": "[1]", "result": 22},
      {"measurement": "southpaw expression: Bilatera or midline, percent of embryos", "setting": "[1]", "result": "(53.7%)"},
      {"measurement": "southpaw expression: No specific signal, number of embryos", "setting": "[1]", "result": 6},
      {"measurement": "southpaw expression: No specific signal, percent of embryos", "setting": "[1]", "result": "(14.6%)"},
      {"measurement": "southpaw expression: left, number of embryos", "setting": "[1]", "result": 12},
      {"measurement": "southpaw expression: left, percent of embryos", "setting": "[1]", "result": "(29.3%)"},
      {"measurement": "southpaw expression: right, number of embryos", "setting": "[1]", "result": 1},
      {"measurement": "southpaw expression: right, percent of embryos", "setting": "[1]", "result": "(2.4%)"},
      {"measurement": "lefty2 expression: Bilatera or midline, number of embryos", "setting": "[2]", "result": 2},
      {"measurement": "lefty2 expression: Bilatera or midline, percent of embryos", "setting": "[2]", "result": "(4.8%)"},
      {"measurement": "lefty2 expression: No specific signal, number of embryos", "setting": "[2]", "result": 16},
      {"measurement": "lefty2 expression: No specific signal, percent of embryos", "setting": "[2]", "result": "(38.1%)"},
      {"measurement": "lefty2 expression: left, number of embryos", "setting": "[2]", "result": 21},
      {"measurement": "lefty2 expression: left, percent of embryos", "setting": "[2]", "result": "(50%)"},
      {"measurement": "lefty2 expression: right, number of embryos", "setting": "[2]", "result": 3},
      {"measurement": "lefty2 expression: right, percent of embryos", "setting": "[2]", "result": "(7.1%)"},
      {"measurement": "levels of tubulin monoglycylation/glycylation in cilia", "setting": "[3]", "result": "reduced"},
      {"measurement": "levels of endogenous TTLL3 mRNA", "setting": "[4]", "result": "dramatic reduction"},
      {"measurement": "heart position left, number of embryos", "setting": "[5]", "result": 23},
      {"measurement": "heart position left, percent of embryos", "setting": "[5]", "result": 57.5, "unit": "%"},
      {"measurement": "heart position middle, number of embryos", "setting": "[5]", "result": 6},
      {"measurement": "heart position middle, percent of embryos", "setting": "[5]", "result": 15, "unit": "%"},
      {"measurement": "heart position right, number of embryos", "setting": "[5]", "result": 11},
      {"measurement": "heart position right, percent of embryos", "setting": "[5]", "result": "(27.5%)"},
      {"measurement": "heart position left, number of embryos", "setting": "[6]", "result": 21},
      {"measurement": "heart position left, percent of embryos", "setting": "[6]", "result": 64, "unit": "%"},
      {"measurement": "heart position middle, number of embryos", "setting": "[6]", "result": 8},
      {"measurement": "heart position middle, percent of embryos", "setting": "[6]", "result": 24, "unit": "%"},
      {"measurement": "heart position right, number of embryos", "setting": "[6]", "result": 4},
      {"measurement": "heart position right, percent of embryos", "setting": "[6]", "result": "(12%)"},
      {"measurement": "hydrocephalic morphants", "setting": "[7]", "result": 81, "unit": "%"},
      {"measurement": "morphant embryos with curly tail", "setting": "[7]", "result": 64.3, "unit": "%"}
    ]}
  ]
}
